From patent US20220071932A1, “Compositions and Methods Against Stress-Induced Affective Disorders and Their Associated Symptoms” (The Trustees of Columbia University in the City of New York, priority 2019, published 2022)

Legend:
129S6/SvEv mice [1] = assay: Contextual fear conditioning (CFC), 3-shock; freezing; assay type: in vivo; conditions: for p, Freezing (%), CFC Re-exposure 2, (R,S)-ketamine vs. FENM / p, Freezing (%), CFC Re-exposure 2, Saline vs. drug: drug 5 min after re-exposure 1; for p, Freezing (%), CFC Re-exposure 2, (R,S)-ketamine vs. FENM: (R,S)-ketamine 30 mg/kg vs. FENM 20 mg/kg
Procedure: A 3-shock CFC paradigm was administered as previously described (45, 46). CFC was conducted in chambers obtained from Med Associates (St. Albans, Vt.), with internal dimensions of approximately 20 cm wide×16 cm deep×20.5 cm high. The chambers had metal walls on each side, clear plastic front and back walls and ceilings, and stainless-steel bars on the floor. A house light (CM1820 bulb, 28v, 100 mA) mounted directly above the chamber provided illumination. Each chamber was located inside a larger, insulated, plastic cabinet that provided protection from outside light and noise. Each cabinet contained a ventilation fan that was operated during the sessions. A paper towel dabbed with lemon solution was placed underneath the chamber floor. Mice were held outside the experimental room in their home cages prior to testing and transported to the conditioning apparatus individually in standard mouse cages Chambers were cleaned with 70% EtOH between each set of mice. Mice were placed into the conditioning chamber and received shocks at 180 s, 240 s, and 300 s (2 s duration, 0.75 mA). Fifteen seconds after the last shock, mice were removed from the chamber. Overall, the training session lasted 317 s. […] All sessions were scored for freezing using FreezeFrame4.

129S6/SvEv mice [2] = assay: Novelty suppressed feeding (NSF); assay type: in vivo; conditions: for Novelty Suppressed Feeding, Latency to feed in OF (sec), p (Fisher's LSD): FIG. 8P
Procedure: Testing was performed as previously described (47). Briefly, the NSF testing apparatus consisted of a plastic box (50×50×20 cm). The floor of which was covered with approximately 2 cm of wooden bedding and the arena was brightly lit (approximately 1000 lux). Mice were food restricted for 24 h prior to testing. At the time of testing, a single pellet of food (regular chow) was placed on a white paper platform positioned in the center of the box. Each animal was placed in a corner of the box, and a stopwatch was immediately started. The latency of the mice to begin eating in the arena was recorded Immediately after the latency was recorded, the food pellet was removed from the arena. The mice were then placed back into their home cage. The latency to eat and the amount of food consumed in 5 min were measured (home cage consumption), followed by an assessment of post-restriction weight. A Kaplan-Meier survival analysis was used due to the lack of normal distribution of data. The Mantel-Cox log-rank test was used to evaluate differences between the experimental groups.

[3] = Saline vs. FENM (20 mg/kg), FIG. 8D
[4] = Saline vs. FENM (20 mg/kg), FIG. 8F
[5] = dose (20), drug 5 minutes after stress, FIG. 2C
[6] = 5 min after context re-exposure 1, (R,S)-ketamine 30 mg/kg, FENM 20 mg/kg, vs saline
[7] = 5 minutes after CFC, re-exposure 1 day after training, (R,S)-ketamine 30 mg/kg, FENM 20 mg/kg, vs saline
[8] = 5 minutes prior to re-exposure 1, (R,S)-ketamine 30 mg/kg, FENM 20 mg/kg, vs saline
[9] = non-stressed mice, FENM 20 mg/kg 1 hour before the start of the OF, vs saline

SMILES: NC12CC3CC(C1)CC(CCF)(C3)C2 [FENM, 1-amino-3-fluoroethyl-adamantane]
- CFC Re-exposure 2, Freezing (%), p (Fisher's LSD) (129S6/SvEv mice [1]; (R,S)-ketamine (30 mg/kg) vs. FENM (20 mg/kg), after RMANOVA, FIG. 8F): <0.0001
- CFC Training, Freezing, p (Fisher's LSD) (129S6/SvEv mice [1]; (R,S)-ketamine (30 mg/kg) vs. FENM (20 mg/kg), after RMANOVA, FIG. 8 cohort): 0.0029
- Behavior: Fear (129S6/SvEv mice [1]; Extinction (5 min after re-exposure 1), dose 20 mg/kg): ↓
- p, Freezing (%), CFC Re-exposure 2, (R,S)-ketamine vs. FENM (129S6/SvEv mice [1]; Fisher's LSD after ANOVA, FIG. 4G): 0.0248
- p, Freezing (%), CFC Re-exposure 2, Saline vs. drug (129S6/SvEv mice [1]; Fisher's LSD after ANOVA, FENM 20 mg/kg, (R,S)-ketamine 30 mg/kg, FIG. 4G): 0.0281
- p, Freezing (%), CFC Re-exposure 2, (R,S)-ketamine vs. FENM (129S6/SvEv mice [1]; Fisher's LSD after RMANOVA, FIG. 4F): 0.0248
- p, Freezing (%), CFC Re-exposure 2, Saline vs. drug (129S6/SvEv mice [1]; Fisher's LSD after RMANOVA, FENM 20 mg/kg, ketamine 30 mg/kg, FIG. 4F): 0.0281
- p, Freezing (%), CFC Training, Saline vs. drug (129S6/SvEv mice [1]; Fisher's LSD after RMANOVA, drug 5 min before CFC, (R,S)-ketamine 30 mg/kg, FENM dose lies beyond the rows shown, FIG. 8B): 0.9251
- Behavior: Fear (129S6/SvEv mice [1]; Prophylactic (5 min before stress), dose 20 mg/kg): ↑
- Behavior: Fear (129S6/SvEv mice [1]; Prophylactic (7 days before stress), dose 20 mg/kg): ↓
- Behavior: Fear (129S6/SvEv mice [1]; Prophylactic (7 days before stress), dose 30 mg/kg): ↓
- CFC Training, Average Freezing, p (Fisher's LSD) (129S6/SvEv mice [1]; Saline vs. FENM (20 mg/kg), FIG. 8C): 0.9251
- CFC Re-exposure 1, Freezing Min 1 (%), p (Fisher's LSD) (129S6/SvEv mice [1]; [3]): 0.0008
- CFC Re-exposure 1, Freezing Min 2 (%), p (Fisher's LSD) (129S6/SvEv mice [1]; [3]): 0.0075
- CFC Re-exposure 1, Freezing Min 3 (%), p (Fisher's LSD) (129S6/SvEv mice [1]; [3]): 0.1384
- CFC Re-exposure 1, Freezing Min 4 (%), p (Fisher's LSD) (129S6/SvEv mice [1]; [3]): 0.7601
- CFC Re-exposure 1, Freezing Min 5 (%), p (Fisher's LSD) (129S6/SvEv mice [1]; [3]): 0.4751
- CFC Re-exposure 2, Freezing Min 1 (%), p (Fisher's LSD) (129S6/SvEv mice [1]; [4]): 0.5432
- CFC Re-exposure 2, Freezing Min 2 (%), p (Fisher's LSD) (129S6/SvEv mice [1]; [4]): 0.0173
- CFC Re-exposure 2, Freezing Min 3 (%), p (Fisher's LSD) (129S6/SvEv mice [1]; [4]): 0.0053
- CFC Re-exposure 2, Freezing Min 4 (%), p (Fisher's LSD) (129S6/SvEv mice [1]; [4]): 0.3068
- CFC Re-exposure 2, Freezing Min 5 (%), p (Fisher's LSD) (129S6/SvEv mice [1]; [4]): 0.3729
- CFC Re-exposure 1, Freezing (%), p (Fisher's LSD) (129S6/SvEv mice [1]; Saline vs. FENM (20 mg/kg), after ANOVA, FIG. 8E): 0.0665
- CFC Re-exposure 2, Freezing (%), p (Fisher's LSD) (129S6/SvEv mice [1]; Saline vs. FENM (20 mg/kg), after ANOVA, FIG. 8G): 0.0173
- CFC Re-exposure 1, Freezing (%), p (Fisher's LSD) (129S6/SvEv mice [1]; Saline vs. FENM (20 mg/kg), after RMANOVA, FIG. 8D): 0.0665
- CFC Re-exposure 2, Freezing (%), p (Fisher's LSD) (129S6/SvEv mice [1]; Saline vs. FENM (20 mg/kg), after RMANOVA, FIG. 8F): 0.0173
- p, Fisher's PLSD Saline vs. drug, CFC Re-exposure Freezing Min 1 (%) (129S6/SvEv mice [1]; [5]): 0.1072
- p, Fisher's PLSD Saline vs. drug, CFC Re-exposure Freezing Min 2 (%) (129S6/SvEv mice [1]; [5]): 0.0080
- p, Fisher's PLSD Saline vs. drug, CFC Re-exposure Freezing Min 3 (%) (129S6/SvEv mice [1]; [5]): 0.1619
- p, Fisher's PLSD Saline vs. drug, CFC Re-exposure Freezing Min 4 (%) (129S6/SvEv mice [1]; [5]): 0.5390
- p, Fisher's PLSD Saline vs. drug, CFC Re-exposure Freezing Min 5 (%) (129S6/SvEv mice [1]; [5]): 0.8801
- p, Fisher's PLSD Saline vs. drug, CFC Re-exposure Freezing (%) (129S6/SvEv mice [1]; dose (20), drug 5 minutes after stress, after RMANOVA, FIG. 2C): 0.1188
- behavior during CFC training (129S6/SvEv mice [1]; one week prior to 3-shock CFC (c-fos / Western blot cohort), (R,S)-ketamine 30 mg/kg, FENM 20 mg/kg, vs saline): did not alter behavior
- freezing upon re-exposure (129S6/SvEv mice [1]; one week prior to 3-shock CFC, re-exposed five days later, (R,S)-ketamine 30 mg/kg, FENM 20 mg/kg, vs saline): significantly reduced freezing
- latency to feed in the open arena (NSF) (129S6/SvEv mice [2]; 1 week prior to CFC, (R,S)-ketamine 30 mg/kg, FENM 10, 20 or 30 mg/kg, vs saline): did not alter
- latency to eat in the NSF arena (129S6/SvEv mice [2]; [6]): did not alter
- latency to eat in the homecage (NSF) (129S6/SvEv mice [2]; [6]): did not alter
- latency to feed in the open arena (NSF) (129S6/SvEv mice [2]; 5 min prior to CFC, (R,S)-ketamine 30 mg/kg, FENM 20 mg/kg, vs saline): but not FENM, increased
- latency to feed in the home cage (NSF) (129S6/SvEv mice [2]; [7]): did not alter
- latency to feed in the open arena (NSF) (129S6/SvEv mice [2]; [7]): did not alter
- latency to feed in the open arena (NSF) (129S6/SvEv mice [2]; 5 minutes after CFC, re-exposure 5 days after training, (R,S)-ketamine 30 mg/kg, FENM 10, 20 or 30 mg/kg, vs saline): did not alter
- latency to eat in the NSF arena (129S6/SvEv mice [2]; [8]): did not alter
- latency to eat in the homecage (NSF) (129S6/SvEv mice [2]; [8]): did not alter
- Novelty Suppressed Feeding, Latency to feed in OF (sec), p (Fisher's LSD) (129S6/SvEv mice [2]; (R,S)-ketamine (30 mg/kg) vs. FENM (20 mg/kg)): 0.0130
- Behavior: Hypophagia (129S6/SvEv mice [2]; Baseline Anxiolytic, dose 20 mg/kg): ↓
- p, Fraction of mice not eating in OF, NSF, Saline vs. FENM (129S6/SvEv mice [2]; Log-rank (Mantel-Cox) test, Baseline, anxiety cohort, FENM 20 mg/kg, FIG. 7J): 0.0210
- p, Fraction of mice not eating in HC, NSF, Saline vs. FENM (129S6/SvEv mice [2]; Log-rank (Mantel-Cox) test, Baseline, anxiety cohort, FENM 20 mg/kg, FIG. 7K): 0.7953
- Novelty Suppressed Feeding, Latency to feed in OF (sec), p (Fisher's LSD) (129S6/SvEv mice [2]; Saline vs. FENM (20 mg/kg)): 0.4585
- latency to approach the pellet in the NSF arena (129S6/SvEv mice [2]; [9]): significantly decreased
- latency to eat in the homecage (NSF) (129S6/SvEv mice [2]; [9]): did not alter
- p, Change in Weight (g), NSF, Saline vs. FENM (129S6/SvEv mice [2]; t-test, Baseline, anxiety cohort, FENM 20 mg/kg, FIG. 7L): 0.1661
- p, Food Eaten (g), NSF, Saline vs. FENM (129S6/SvEv mice [2]; t-test, Baseline, anxiety cohort, FENM 20 mg/kg, FIG. 7M): 0.0801
